{
  "source": "patent US20110195910A1",
  "about": "“USE OF TOCOTRIENOL COMPOSITION FOR THE PREVENTION OF CANCER” (DAVOS LIFE SCIENCE PTE. LTD., priority 2008, published 2011)",
  "key": {"[1]": {"experiment": "γ-T3 level in tumors and organs by HPLC", "format": "in vivo, BALB/c athymic nude mice", "settings": "50 mg/kg/day γ-T3 for 10 days", "method": "Nude mice bearing similar tumor sizes of about 100 mm^3 (after 2 weeks inoculation) were selected and randomly divided into three groups (n=5 per group); control (DMSO as vehicle), γ-T3 (50 mg/kg/d) and combination treatment of γ-T3 and Docetaxel (50 mg of γ-T3/kg/d and 7.5 mg of Docetaxel/kg/wk). The mice were weighed as daily basic and the tumors were measured using a Digital Carbon Fiber Caliper (Fisher scientific, Pittsburgh, Pa.) at the same time. The tumor volume was calculated as 4/3*π*(mean diameter/2)^3. The mice were dosed 5 times a week for 2 weeks. After 10 days of treatment, the mice were euthanized by CO2 inhalation. Blood samples were collected through cardiac bleeding using 25-gauge needle. Blood samples were incubated at room temperature for 30 min, followed by centrifugation at 4400 rpm, 4° C. for 30 min. Serum, as the supernatant, was separated from plasma and stored at −80° C. Tumor, liver, kidney, spleen, lung and heart were harvested. Part of the tumors was fixed in 10% neutral buffered formalin solution. […]\n4.1.7 Determination of γ-Tocotrienol level by high performance liquid chromatography—A normal phase of HPLC method was performed as a modification of procedures known in the art. […] The absorbance of γ-T3 was monitored with a […] set at an excitation wavelength of 290 nm and emission wavelength of 360 nm."}, "DU145 prostaspheres": {"test_system": "DU145 prostaspheres", "experiment": "Treatment of pre-formed CSC-enriched DU145 prostaspheres", "format": "cell-based", "settings": "48 hrs", "method": "(A) CSC enriched prostaspheres were formed by maintaining DU145 cells in non-adherent culture supplemented with serum replacement medium for 14 days. The prostaspheres were then treated with either vehicle, γ-T3 (10, 20 μg/ml) or Docetaxel (Doc, 40 ng/ml) for 48 hrs. Spheroids were counted under microscope before and after treatment. Results were presented as mean % change in spheroid number to control±s.d. Note that spheroids were highly sensitive to γ-T3 treatment but resistant to high dose of Docetaxel. (B) Images of prostaspheres after 48 hrs treatment with vehicle, 40 ng/ml of Docetaxel and 10 μg/ml of γ-T3.\n5.1.7 Spheroid formation assay—Spheroid formation assay was performed with a protocol modified from previous study (Folkins C, p3560). Briefly, cells were first trypsinized, washed with 1× PBS and resuspended in DMEM F12 medium. Two hundred cells were added into each well of a 24-well-plate pre-coated with polyHEMA (Sigma, St. Louis, Mo.). Cells will be grown in DMEM/F12 mem (Invitrogen, Carlsbad, Calif.) supplemented with 4 μg/mL insulin (Sigma, St. Louis, Mo.), B27 (Invitrogen, Carlsbad, Calif.), 20 ng/mL EGF (Sigma, St. Louis, Mo.), and 20 ng/mL basic FGF (Invitrogen, Carlsbad, Calif.). Fresh medium with the above supplements was added every day. γ-T3 was added at indicated time points and the number of spheroids was counted at day 14 of the assay or at the end of the treatment. Each experiment was repeated in triplicates and each data point represented the mean and standard derivation."}, "PC-3 cells": {"test_system": "PC-3 cells", "experiment": "CSC marker and signalling expression in PC-3 cells (western blotting, flow cytometry, RT-PCR)", "format": "cell-based", "method": "5.1.5 Western blotting was carried out as described above under 1.1.5. The membrane was incubated with primary antibodies directed against CD133 (Miltenyi Biotec, Auburn, Calif.), Bcl-2, PARP, cleaved caspase 3, 7, 9 (Cell Signaling, Technology Inc, Beverly, Mass.), CD44 and β-actin (Santa Cruz Biotechnology, Santa Cruz, Calif.). After washing with TBS-T, the membrane was incubated with secondary antibody against either mouse or rabbit IgG and the signals were visualized using ECL plus western blotting system (Amersham, Piscataway, N.J.).\n5.1.6 Semi-quantitative RT-PCR—Total RNA was isolated using TRIZOL® reagent (Invitrogen, Carlsbad, Calif.) following the manufacturer's instruction. cDNA was synthesized by using SuperScript First-Strand Synthesis System for RT (Invitrogen, Carlsbad, Calif.) and PCR was carried out with GeneAmp® PCR System 9700 (Applied Biosystems, Foster City, Calif.). The primers sequence and PCR condition for RT-PCR of CD133 were previously described. The amounts of mRNA were quantified relative to GAPDH.\n5.1.8 Flow cytometry—Flow cytometry analysis of the CD44 positive cells were performed with procedure known in the art. Briefly, cells were incubated in PBS containing 2% FBS with PE-conjugated anti-human CD44 antibody. Isotype-matched mouse immunoglobulins served as controls. Samples were then analyzed using a FACS Calibur flow cytometer and CellQuest software (BD Biosciences, San Jose, Calif., USA)."}},
  "data": [
    {"smiles": "CC(C)=CCC/C(C)=C/CC/C(C)=C/CCC1(C)CCc2cc(O)c(C)c(C)c2O1", "note": "(stereo not drawn) [γ-T3, 7,8-dimethyltocotrienol]", "values": [
      {"measurement": "tumor γ-T3 amount relative to other internal organs", "setting": "[1]", "value": "at least two-fold"},
      {"measurement": "γ-T3 concentration within the tumors", "setting": "[1]", "value": "0.15±0.03 mg of γ-T3 per gram of wet weight"},
      {"measurement": "decrease of spheroid number", "setting": "DU145 prostaspheres; 10 μg/ml", "value": 70, "unit": "%"},
      {"measurement": "decrease of spheroid number", "setting": "DU145 prostaspheres; 20 μg/ml", "value": 76, "unit": "%"},
      {"measurement": "population of CD44+ PC-3 cells (flow cytometry)", "setting": "PC-3 cells; 5 μg/ml, 24 hrs", "value": "found to decrease"},
      {"measurement": "CD133 mRNA level", "setting": "PC-3 cells; 2.5 and 5 μg/ml, 48 and 72 hrs", "value": "decrease of CD133 mRNA"},
      {"measurement": "protein expression of CD44 (CD133 similar)", "setting": "PC-3 cells; PC-3, 2.5 & 5 μg/ml, 24, 48 and 72 hours", "value": "significantly down regulated"},
      {"measurement": "expression of AKT", "setting": "PC-3 cells; low dose, 0 to about 5 μg/ml", "value": "downregulated"},
      {"measurement": "expression of Oct3/4 and Nestin", "setting": "PC-3 cells; low dose, 0 to about 5 μg/ml", "value": "upregulated"}
    ]}
  ]
}
